# Laboratory results from ChEMBL document CHEMBL1201862, “PubChem BioAssay data set” (2004).
# Activity calls are given as the source filed them. Cut-off read from the data, not from the text of the source, for most assays here: actives have a measured EC50 and inactives only a lower limit.
# Key:
# [1] = luciferase reporter signal suppression in cells – H4 neuroglioma cells, luminescence, dose response (AID 1990); format: functional, cell-based
# [2] = luciferase reporter signal reduction – luminescence, H4-C neuroglioblastoma cells, dose response (AID 2458); format: functional, cell-based;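 note: H4 neuroglioblastoma cells stably carrying a luciferase reporter gene fusion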
# [3] = system: Streptococcus sp. 'group A'; test: Streptococcus pyogenes SK(-)GAS viability under kanamycin – luminescence, BacTiterGlo, confirmation, counter-screen for streptokinase expression inhibitor project, dose response (AID 1900); format: functional, organism-based
# BJ [4] = test: BJ-TERT fibroblast viability loss – cell-based, RAS-independent, luminescence, dose response (AID 1933); format: functional; details: Homo sapiens
# cells = format: functional, cell-based
# [5] = Luminescence Cell-Based Dose Response HTS to Identify Inhibitors of 5'UTR Stem-Loop Driven Prion Protein mRNA Translation in H4 Neuroglioblastoma Cells. [Related pubchem assays: 1827 (Project Summary), 1813 (Primary HTS)]; format: functional
# [6] = alpha-synuclein stem-loop luciferase translation blockers – H4 neuroglioma cells, luminescence, confirmation (AID 1988); format: functional, cell-based
# BJ [7] = test: cells; format: functional, cell-based, Homo sapiens; details: Homo sapiens, BJ
# BJ [8] = test: BJ-TERT-LT-ST fibroblast viability loss – cell-based, RAS-independent, luminescence, dose response (AID 1935); format: functional; details: Homo sapiens;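 note: BJ fibroblasts immortalized with TERT plus LT and ST oncogenes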
# [9] = DRD fibroblast viability loss – cell-based, non-viral oncogenic, luminescence, dose response (AID 1934); format: functional; details: Homo sapiens
# Streptococcus = test: GAS UMAA2166 growth inhibition – luminescence, BacTiterGlo, counter-screen for streptokinase expression inhibitor project, dose response (AID 1915); format: functional, organism-based;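 note: potency for reduction of bacterial viability or growth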
# [10] = alpha-synuclein stem-loop translation blockers – luminescence, H4 neuroglioblastoma cells, dose confirmation, confirmation (AID 2454); format: functional, cell-based;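 note: H4 neuroglioblastoma cells carrying an alpha-synuclein 5'UTR luciferase reporter; potency for inhibition of the luciferase signal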
# Exodeoxyribonuclease V = Exodeoxyribonuclease V (Escherichia coli (strain K12), UniProt P04993+P07648+P08394); test: RecBCD inhibition via phage-restricted bacterial growth – absorbance, V66 E. coli, mutant T4 phage, counter-screen for AddAB inhibitor project, dose response (AID 492957); format: functional, cell-based, Escherichia coli str. K-12 substr. MG1655
# [11] = molecular target: T1, Short transient receptor potential channel 4 (Mus musculus, UniProt Q9QUQ5); test: calcium entry via TRPC4 opening agents – cell-based, HEK293 TRPC4/mu-opioid, Fluo-4 calcium, dose response (AID 434937); format: functional
# T1 sequence (Q9QUQ5 whole entry): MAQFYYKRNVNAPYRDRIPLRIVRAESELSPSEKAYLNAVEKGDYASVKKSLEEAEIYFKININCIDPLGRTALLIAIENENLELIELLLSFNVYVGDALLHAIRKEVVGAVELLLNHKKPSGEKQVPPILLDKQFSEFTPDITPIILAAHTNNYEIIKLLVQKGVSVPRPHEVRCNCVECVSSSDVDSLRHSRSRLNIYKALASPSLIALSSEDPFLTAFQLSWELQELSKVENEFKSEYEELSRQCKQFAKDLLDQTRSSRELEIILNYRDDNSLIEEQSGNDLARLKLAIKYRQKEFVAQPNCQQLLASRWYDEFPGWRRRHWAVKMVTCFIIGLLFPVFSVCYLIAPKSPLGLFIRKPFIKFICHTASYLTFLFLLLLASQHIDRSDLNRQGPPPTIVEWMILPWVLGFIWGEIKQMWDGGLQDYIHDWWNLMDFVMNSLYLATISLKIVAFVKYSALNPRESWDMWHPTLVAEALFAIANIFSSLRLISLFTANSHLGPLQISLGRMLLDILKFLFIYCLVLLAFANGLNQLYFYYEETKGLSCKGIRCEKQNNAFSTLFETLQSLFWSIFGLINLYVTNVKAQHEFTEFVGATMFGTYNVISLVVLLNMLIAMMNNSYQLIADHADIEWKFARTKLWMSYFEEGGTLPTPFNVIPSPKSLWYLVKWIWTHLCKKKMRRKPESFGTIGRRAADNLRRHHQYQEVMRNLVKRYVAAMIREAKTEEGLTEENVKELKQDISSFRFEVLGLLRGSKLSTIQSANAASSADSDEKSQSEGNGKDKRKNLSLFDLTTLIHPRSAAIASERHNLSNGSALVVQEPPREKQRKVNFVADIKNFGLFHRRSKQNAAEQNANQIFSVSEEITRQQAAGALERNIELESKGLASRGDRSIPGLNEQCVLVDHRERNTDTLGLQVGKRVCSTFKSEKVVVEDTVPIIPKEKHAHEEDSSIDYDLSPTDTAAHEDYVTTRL
# [12] = HEK-293T viability loss after treatment – luminescence, T-cell screen hits, cytotoxicity control for TCR NF-kB inhibitor project, dose response (AID 489026); format: functional, cell-based;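 note: cells exposed to compound about 14 hours before the viability readout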
# [13] = Counterscreen for AddAB inhibitors: absorbance-based bacterial cell-based high throughput dose response assay for inhibitors of bacterial viability. [Related pubchem assays (depositor defined):AID435030, AID449728, AID449731, AID488942, AID488955, AID488956]; format: functional
# [14] = molecular target: T2, Replicative DNA helicase DnaB (Mycobacterium tuberculosis, UniProt P9WMR3); test: DnaB intein splicing inhibitors, dose response, biochemical, cell-free fluorescence (AID 449749); format: functional
# T2 sequence (P9WMR3 whole entry): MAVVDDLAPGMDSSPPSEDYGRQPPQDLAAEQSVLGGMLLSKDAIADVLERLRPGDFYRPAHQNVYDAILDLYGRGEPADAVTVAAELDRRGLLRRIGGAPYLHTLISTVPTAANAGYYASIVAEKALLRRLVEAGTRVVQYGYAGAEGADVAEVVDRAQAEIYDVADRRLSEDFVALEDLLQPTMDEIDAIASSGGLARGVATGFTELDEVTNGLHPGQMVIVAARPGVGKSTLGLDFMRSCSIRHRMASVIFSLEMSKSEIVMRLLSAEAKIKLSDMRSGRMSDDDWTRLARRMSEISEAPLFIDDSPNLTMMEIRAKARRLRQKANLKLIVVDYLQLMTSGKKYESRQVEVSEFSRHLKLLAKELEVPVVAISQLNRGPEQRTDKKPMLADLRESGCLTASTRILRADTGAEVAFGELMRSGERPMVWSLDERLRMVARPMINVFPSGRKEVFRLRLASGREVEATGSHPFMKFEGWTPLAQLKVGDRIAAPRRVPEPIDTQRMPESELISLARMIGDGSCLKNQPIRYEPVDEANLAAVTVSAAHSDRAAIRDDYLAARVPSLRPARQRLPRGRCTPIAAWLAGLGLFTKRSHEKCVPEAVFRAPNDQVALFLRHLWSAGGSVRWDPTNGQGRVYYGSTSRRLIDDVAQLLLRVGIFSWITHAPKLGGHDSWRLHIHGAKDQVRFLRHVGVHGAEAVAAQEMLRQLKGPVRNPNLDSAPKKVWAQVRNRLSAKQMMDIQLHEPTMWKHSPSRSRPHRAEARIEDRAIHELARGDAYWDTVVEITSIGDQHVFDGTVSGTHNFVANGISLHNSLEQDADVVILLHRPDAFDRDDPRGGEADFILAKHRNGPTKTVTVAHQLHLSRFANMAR
# Protein RecA = molecular target: T3, Protein RecA (Mycobacterium tuberculosis, UniProt P9WHJ3); test: Fluorescence Cell-Free Homogeneous Dose Retest to Identify Inhibitors of RecA-Intein Splicing Activity. [Related pubchem assays (depositor defined):AID2097, AID2223, AID489010, AID492950]; format: functional
# T3 sequence (P9WHJ3 whole entry): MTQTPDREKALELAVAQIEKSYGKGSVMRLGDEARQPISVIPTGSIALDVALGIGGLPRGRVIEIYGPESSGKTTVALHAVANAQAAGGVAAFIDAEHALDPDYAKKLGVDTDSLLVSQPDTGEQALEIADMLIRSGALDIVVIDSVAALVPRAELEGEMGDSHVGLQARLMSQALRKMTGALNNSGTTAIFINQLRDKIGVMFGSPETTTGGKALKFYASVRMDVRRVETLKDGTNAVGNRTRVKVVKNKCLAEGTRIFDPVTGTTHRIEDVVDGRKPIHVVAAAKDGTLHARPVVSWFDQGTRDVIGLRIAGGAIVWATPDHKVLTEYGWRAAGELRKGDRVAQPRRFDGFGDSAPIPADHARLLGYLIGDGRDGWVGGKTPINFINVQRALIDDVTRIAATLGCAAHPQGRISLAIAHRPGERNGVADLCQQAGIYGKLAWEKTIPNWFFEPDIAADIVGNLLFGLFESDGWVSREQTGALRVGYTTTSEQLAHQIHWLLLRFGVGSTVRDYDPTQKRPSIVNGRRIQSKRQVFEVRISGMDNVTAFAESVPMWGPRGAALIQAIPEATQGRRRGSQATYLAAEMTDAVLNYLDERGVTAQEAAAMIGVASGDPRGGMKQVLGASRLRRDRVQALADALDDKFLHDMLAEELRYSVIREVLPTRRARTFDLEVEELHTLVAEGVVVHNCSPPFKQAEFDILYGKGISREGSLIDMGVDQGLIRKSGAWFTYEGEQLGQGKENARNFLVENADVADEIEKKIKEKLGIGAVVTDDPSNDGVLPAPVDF
# [15] = NIH-3T3 fibroblast cytotoxicity, dose response, cytotoxicity control, cell-based, fluorescence, Alamar Blue, secondary assay (AID 2327); format: functional;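 note: NIH-3T3 mouse fibroblasts cultured with fluconazole at 8 µg/mL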
# [16] = molecular target: G-protein coupled receptor 35 (Homo sapiens, UniProt Q9HC97); test: inhibition of zaprinast-stimulated GPR35 beta-arrestin translocation – imaging, U2OS, beta-arrestin-GFP, zaprinast agonist, primary screen (AID 2058); format: functional;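 note: antagonist potency meaning inhibition of agonist-induced arrestin redistribution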
# Sequence of G-protein coupled receptor 35 (Q9HC97 whole entry): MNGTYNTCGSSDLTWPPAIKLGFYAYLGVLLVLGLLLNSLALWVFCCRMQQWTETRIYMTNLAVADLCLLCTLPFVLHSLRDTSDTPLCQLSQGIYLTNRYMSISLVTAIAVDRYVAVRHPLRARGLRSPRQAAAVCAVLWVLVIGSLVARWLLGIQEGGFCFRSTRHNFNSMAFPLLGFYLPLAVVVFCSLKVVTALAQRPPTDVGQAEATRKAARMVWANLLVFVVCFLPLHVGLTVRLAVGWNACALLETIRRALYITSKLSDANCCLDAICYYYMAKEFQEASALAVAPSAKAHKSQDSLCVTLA
# [17] = fluconazole-exposed Candida albicans growth modulators – fluorescence, retest, confirmation (AID 2467); format: functional, cell-based
# [18] = Trypanosoma cruzi growth suppression in host cells – NIH3T3 host cells, beta-gal luminescence, confirmation (AID 2044); format: functional, cell-based;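 note: intracellular parasites grown in NIH/3T3 mouse fibroblasts as host cells; luminescent beta-galactosidase reporter signal from transgenic T. cruzi replicating inside host cells; inhibitors lower the luminescence signal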
# [19] = NIH3T3 cell viability loss – ATP luminescence, mouse fibroblasts, counter-screen, dose response (AID 2010); format: functional, cell-based;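 note: cells exposed to compound for about 90 hours before reading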
# [20] = molecular target: G-protein coupled receptor 55 (Homo sapiens, UniProt Q9Y2T6); test: blockers of GPR55 signalling, imaged – imaging, image-based, counter-screen for GPR35 antagonist project, SAR follow-up (AID 2397); format: functional
# Sequence of G-protein coupled receptor 55 (Q9Y2T6 whole entry): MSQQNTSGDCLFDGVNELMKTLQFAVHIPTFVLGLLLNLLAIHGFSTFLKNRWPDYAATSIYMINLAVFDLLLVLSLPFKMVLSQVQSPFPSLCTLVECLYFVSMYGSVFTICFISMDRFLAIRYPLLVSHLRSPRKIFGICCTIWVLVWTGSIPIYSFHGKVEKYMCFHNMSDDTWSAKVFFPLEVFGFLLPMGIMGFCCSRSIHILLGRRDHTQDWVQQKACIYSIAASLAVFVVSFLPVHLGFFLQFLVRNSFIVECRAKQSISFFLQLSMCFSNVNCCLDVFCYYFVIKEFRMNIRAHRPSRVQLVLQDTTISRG
# [21] = molecular target: T4, Mannose-6-phosphate isomerase (Homo sapiens, UniProt P34949); test: phosphomannose isomerase inhibition – biochemical, fluorescence intensity, confirmation (AID 1535)
# T4 sequence (P34949 whole entry): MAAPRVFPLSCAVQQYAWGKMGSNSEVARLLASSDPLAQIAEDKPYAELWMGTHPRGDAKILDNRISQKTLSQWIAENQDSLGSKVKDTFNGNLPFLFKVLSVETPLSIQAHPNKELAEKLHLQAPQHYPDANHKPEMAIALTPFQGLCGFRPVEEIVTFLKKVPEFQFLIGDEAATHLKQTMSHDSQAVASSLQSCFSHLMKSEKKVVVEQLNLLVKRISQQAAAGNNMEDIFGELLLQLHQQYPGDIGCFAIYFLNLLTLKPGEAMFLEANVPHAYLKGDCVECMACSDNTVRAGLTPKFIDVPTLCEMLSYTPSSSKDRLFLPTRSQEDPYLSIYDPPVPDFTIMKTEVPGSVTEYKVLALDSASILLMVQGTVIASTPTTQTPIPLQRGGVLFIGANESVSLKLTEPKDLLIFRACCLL
# SUMO E1/E2 = SUMO E1/E2 (Homo sapiens, UniProt P63279+Q9UBE0+Q9UBT2); test: SAR analysis of SUMOylation using HTRF in an in-Vitro dose response assay. [Related pubchem assays (depositor defined):AID2006, AID2011, AID2018, AID2069, AID2658]; format: functional
# Sequence of SUMO E1/E2 (Q9UBE0 whole entry): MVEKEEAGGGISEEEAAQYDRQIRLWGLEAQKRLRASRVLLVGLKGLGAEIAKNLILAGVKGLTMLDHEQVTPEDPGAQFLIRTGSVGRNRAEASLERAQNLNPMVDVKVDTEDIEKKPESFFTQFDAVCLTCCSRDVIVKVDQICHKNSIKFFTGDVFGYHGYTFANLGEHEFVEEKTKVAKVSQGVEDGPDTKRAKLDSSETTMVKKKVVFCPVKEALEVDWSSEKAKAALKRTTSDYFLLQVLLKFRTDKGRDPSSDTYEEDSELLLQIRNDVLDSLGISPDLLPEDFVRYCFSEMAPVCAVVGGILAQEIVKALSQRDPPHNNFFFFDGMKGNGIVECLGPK
# Sequence of SUMO E1/E2 (Q9UBT2 whole entry): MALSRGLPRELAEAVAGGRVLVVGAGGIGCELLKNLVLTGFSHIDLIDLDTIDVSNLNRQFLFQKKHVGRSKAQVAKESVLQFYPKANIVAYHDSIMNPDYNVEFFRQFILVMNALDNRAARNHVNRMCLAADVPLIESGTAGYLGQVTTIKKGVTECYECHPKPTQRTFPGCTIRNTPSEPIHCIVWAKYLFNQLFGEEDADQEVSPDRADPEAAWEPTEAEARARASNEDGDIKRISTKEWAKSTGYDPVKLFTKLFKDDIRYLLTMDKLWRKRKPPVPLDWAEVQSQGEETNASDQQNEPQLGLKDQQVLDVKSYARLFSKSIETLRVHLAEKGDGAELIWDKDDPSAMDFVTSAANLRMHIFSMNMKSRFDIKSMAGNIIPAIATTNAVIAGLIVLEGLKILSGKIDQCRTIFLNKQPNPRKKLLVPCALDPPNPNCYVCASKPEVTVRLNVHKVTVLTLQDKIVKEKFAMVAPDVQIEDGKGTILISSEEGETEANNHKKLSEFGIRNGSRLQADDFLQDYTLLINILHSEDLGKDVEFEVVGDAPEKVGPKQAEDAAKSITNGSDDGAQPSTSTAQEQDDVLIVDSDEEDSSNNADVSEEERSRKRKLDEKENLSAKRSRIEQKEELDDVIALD
# Sequence of SUMO E1/E2 (P63279 whole entry): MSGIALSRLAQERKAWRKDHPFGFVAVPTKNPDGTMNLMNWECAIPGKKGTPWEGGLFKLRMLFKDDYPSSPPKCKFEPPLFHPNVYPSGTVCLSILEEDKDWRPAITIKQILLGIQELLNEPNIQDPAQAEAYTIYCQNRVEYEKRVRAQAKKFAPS
# [22] = molecular target: T5, Voltage-gated N-type calcium channel alpha-1B subunit/Amyloid beta A4 precursor protein-binding family A member 1 (Homo sapiens, UniProt Q00975+Q02410); test: disruptors of Mint-PDZ/N-type channel peptide interaction – biochemical, HTRF, set 2, SAR follow-up (AID 434980); format: functional
# T5 sequence (Q00975 whole entry): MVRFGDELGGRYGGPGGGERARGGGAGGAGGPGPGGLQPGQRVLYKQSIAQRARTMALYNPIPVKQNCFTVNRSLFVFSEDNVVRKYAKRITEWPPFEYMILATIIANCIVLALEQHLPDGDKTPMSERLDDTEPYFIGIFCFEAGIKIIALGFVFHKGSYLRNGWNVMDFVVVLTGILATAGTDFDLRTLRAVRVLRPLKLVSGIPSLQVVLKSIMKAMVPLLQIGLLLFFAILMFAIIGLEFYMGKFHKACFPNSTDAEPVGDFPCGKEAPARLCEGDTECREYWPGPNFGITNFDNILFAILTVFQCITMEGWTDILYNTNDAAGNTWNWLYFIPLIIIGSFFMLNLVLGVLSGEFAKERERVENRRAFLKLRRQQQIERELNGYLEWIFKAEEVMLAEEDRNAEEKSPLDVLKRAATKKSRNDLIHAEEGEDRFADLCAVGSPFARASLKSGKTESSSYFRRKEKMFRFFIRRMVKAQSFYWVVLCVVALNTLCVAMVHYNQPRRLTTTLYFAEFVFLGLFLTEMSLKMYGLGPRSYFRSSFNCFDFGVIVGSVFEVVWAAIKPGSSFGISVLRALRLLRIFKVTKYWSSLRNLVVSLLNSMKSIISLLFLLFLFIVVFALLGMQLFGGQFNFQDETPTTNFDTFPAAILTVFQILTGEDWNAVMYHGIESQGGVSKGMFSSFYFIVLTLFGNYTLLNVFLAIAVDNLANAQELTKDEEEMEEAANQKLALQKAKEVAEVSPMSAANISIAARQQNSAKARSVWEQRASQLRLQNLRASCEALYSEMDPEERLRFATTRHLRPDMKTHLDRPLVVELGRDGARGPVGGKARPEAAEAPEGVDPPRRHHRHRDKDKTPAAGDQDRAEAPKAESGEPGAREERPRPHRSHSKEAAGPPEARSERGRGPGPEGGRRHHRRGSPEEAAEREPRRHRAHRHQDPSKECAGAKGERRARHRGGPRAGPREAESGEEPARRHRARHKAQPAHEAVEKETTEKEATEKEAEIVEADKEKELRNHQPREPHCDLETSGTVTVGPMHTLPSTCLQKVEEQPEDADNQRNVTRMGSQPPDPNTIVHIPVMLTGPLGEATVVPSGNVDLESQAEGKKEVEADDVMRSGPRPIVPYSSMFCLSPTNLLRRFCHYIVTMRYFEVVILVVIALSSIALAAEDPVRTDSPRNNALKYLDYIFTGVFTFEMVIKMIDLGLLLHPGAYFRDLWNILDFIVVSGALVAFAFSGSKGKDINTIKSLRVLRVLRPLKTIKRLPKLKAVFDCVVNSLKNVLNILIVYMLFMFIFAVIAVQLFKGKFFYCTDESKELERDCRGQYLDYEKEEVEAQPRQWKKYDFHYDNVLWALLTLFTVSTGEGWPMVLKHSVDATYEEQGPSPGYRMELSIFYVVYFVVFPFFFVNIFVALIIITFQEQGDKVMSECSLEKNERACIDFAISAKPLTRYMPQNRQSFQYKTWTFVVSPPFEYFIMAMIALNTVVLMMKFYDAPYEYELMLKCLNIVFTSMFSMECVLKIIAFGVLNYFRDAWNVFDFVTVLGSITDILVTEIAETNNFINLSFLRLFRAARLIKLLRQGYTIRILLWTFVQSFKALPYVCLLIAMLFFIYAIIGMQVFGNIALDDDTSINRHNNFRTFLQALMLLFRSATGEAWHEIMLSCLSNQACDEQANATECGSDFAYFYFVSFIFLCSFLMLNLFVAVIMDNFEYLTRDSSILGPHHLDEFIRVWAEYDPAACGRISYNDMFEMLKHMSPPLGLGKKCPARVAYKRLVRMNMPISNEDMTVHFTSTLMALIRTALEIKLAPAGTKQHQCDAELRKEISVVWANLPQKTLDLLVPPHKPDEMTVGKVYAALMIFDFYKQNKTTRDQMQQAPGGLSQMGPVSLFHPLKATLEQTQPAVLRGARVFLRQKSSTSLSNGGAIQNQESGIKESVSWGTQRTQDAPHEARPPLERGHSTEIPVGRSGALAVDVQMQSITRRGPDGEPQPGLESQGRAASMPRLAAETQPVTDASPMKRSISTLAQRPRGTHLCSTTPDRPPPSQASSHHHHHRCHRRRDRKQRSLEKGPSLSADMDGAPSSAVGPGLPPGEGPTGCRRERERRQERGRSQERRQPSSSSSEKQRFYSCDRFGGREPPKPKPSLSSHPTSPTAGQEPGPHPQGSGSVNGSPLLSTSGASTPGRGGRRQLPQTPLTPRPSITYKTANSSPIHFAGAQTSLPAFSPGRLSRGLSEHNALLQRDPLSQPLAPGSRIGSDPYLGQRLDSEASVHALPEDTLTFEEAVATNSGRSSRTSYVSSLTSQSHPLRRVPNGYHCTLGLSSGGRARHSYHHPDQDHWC
# T5 sequence (Q02410 whole entry): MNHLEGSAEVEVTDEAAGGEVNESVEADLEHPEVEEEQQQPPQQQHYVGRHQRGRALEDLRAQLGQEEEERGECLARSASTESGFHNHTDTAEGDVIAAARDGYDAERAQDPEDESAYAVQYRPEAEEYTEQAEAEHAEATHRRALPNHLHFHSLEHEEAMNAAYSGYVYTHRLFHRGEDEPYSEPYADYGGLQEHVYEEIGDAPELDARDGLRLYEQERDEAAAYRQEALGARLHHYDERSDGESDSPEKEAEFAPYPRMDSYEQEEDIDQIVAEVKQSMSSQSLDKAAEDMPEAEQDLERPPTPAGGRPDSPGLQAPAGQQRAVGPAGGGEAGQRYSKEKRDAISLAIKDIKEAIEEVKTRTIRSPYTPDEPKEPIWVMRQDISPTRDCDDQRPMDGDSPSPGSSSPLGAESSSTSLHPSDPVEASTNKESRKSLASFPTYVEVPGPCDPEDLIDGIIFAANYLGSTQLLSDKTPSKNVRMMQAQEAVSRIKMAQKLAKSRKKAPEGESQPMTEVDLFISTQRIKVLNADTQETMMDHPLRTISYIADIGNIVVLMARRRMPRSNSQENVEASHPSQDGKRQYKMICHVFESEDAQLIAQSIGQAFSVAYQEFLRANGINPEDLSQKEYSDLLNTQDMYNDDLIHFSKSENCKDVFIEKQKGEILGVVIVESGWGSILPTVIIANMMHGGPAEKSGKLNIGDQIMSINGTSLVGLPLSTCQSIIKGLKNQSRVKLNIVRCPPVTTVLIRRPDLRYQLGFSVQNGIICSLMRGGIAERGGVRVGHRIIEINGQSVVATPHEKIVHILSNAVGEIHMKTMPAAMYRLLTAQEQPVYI
# [23] = molecular target: T5, Voltage-gated N-type calcium channel alpha-1B subunit/Amyloid beta A4 precursor protein-binding family A member 1; test: disruptors of Mint-PDZ/N-type channel peptide interaction – biochemical, HTRF, SAR follow-up (AID 2489); format: functional
smiles,measurement,setting,value
Cc1ccc(C[n+]2c(-c3ccc(C)cc3)cc(-c3ccc(C)cc3)cc2-c2ccc(C)cc2)cc1.[O-][Cl+3]([O-])([O-])[O-],EC50,[1],< 0.1 µM (active)
same,EC50,[2],1.62 µM (active)
same,EC50,[3],3.71 µM (active)
same,EC50,BJ [4],1.07 µM (inconclusive)
same,EC50,cells,3.46 µM (active)
same,EC50,[5],4.41 µM (active)
same,EC50,[6],< 0.1 µM (active)
same,EC50,BJ [7],1.23 µM (inconclusive)
same,EC50,BJ [8],2.7 µM (inconclusive)
same,EC50,[9],1.31 µM (active)
same,EC50,Streptococcus,7.91 µM (active)
same,EC50,[10],0.793 µM (active)
same,IC50,Exodeoxyribonuclease V,20.1 µM (inactive)
same,EC50,[11],5.31 µM (active)
same,IC50,[12],25.9 µM (inactive)
same,IC50,[13],18.5 µM (inactive)
same,AC50,[14],3.61 µM (active)
same,EC50,Protein RecA,8.2 µM (active)
Cc1ccc2[nH]c(C)c(/C=C/c3cc[n+](C)cc3)c2c1,EC50,[15],> 150 µM (inactive)
same,IC50,[16],1.62 µM (active)
same,EC50,[17],1.45 µM (active)
same,EC50,[18],0.725 µM (active)
same,EC50,[19],> 30 µM (not active)
same,IC50,[20],1.57 µM (active)
O=c1c2cc(F)ccc2sn1-c1ccccc1F,IC50,[21],5.3 µM (active)
O=C(COC(=O)c1cc(-c2ccco2)nc2ccccc12)NCc1cccc(Cl)c1,IC50,SUMO E1/E2,4.63 µM (active)
same,IC50,[22],30.7 µM (active)
same,IC50,[23],23.7 µM (active)
